Results published in paper PMC3914206.

Columns and labels:
Assay type in all cases: binding
Conditions in all cases: Compound Concentration 10 µM
panel of 442 kinases [1] = molecular target: T1, panel of 442 kinases (Homo sapiens, UniProt O94806)
T1 construct: purchased KINOMEscan
T1 sequence (O94806 1-890): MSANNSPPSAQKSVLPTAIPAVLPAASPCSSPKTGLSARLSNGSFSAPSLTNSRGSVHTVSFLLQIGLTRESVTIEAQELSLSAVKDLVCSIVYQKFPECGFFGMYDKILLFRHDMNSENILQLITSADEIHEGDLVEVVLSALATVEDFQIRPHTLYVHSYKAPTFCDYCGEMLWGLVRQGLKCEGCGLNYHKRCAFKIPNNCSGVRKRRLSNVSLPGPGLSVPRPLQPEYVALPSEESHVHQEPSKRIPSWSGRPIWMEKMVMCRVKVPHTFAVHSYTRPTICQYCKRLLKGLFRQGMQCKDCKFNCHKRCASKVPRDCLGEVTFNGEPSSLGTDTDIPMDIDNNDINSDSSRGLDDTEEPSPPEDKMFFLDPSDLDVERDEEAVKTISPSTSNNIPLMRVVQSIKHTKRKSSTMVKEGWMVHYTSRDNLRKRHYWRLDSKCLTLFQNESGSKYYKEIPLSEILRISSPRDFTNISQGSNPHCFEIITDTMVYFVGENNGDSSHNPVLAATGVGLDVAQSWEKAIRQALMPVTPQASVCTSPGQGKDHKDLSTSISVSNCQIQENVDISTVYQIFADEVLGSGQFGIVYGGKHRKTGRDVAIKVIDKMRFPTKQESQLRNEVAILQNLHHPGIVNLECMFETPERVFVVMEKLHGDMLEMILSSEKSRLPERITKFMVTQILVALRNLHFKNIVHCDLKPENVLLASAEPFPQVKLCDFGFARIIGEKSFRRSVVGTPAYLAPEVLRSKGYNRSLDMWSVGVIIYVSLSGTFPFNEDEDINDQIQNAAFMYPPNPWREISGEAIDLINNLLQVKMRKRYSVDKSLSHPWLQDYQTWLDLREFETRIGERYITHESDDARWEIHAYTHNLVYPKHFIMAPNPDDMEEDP
Source text: (§1) We assessed the selectivity of members of this scaffold using the KINOMEscan methodology across a near comprehensive panel of 442 kinases [[18,27]].

panel of 442 kinases [2] = molecular target: T2, panel of 442 kinases (Homo sapiens, UniProt P08581)
T2 construct: purchased KINOMEscan
T2 sequence (P08581 25-1390): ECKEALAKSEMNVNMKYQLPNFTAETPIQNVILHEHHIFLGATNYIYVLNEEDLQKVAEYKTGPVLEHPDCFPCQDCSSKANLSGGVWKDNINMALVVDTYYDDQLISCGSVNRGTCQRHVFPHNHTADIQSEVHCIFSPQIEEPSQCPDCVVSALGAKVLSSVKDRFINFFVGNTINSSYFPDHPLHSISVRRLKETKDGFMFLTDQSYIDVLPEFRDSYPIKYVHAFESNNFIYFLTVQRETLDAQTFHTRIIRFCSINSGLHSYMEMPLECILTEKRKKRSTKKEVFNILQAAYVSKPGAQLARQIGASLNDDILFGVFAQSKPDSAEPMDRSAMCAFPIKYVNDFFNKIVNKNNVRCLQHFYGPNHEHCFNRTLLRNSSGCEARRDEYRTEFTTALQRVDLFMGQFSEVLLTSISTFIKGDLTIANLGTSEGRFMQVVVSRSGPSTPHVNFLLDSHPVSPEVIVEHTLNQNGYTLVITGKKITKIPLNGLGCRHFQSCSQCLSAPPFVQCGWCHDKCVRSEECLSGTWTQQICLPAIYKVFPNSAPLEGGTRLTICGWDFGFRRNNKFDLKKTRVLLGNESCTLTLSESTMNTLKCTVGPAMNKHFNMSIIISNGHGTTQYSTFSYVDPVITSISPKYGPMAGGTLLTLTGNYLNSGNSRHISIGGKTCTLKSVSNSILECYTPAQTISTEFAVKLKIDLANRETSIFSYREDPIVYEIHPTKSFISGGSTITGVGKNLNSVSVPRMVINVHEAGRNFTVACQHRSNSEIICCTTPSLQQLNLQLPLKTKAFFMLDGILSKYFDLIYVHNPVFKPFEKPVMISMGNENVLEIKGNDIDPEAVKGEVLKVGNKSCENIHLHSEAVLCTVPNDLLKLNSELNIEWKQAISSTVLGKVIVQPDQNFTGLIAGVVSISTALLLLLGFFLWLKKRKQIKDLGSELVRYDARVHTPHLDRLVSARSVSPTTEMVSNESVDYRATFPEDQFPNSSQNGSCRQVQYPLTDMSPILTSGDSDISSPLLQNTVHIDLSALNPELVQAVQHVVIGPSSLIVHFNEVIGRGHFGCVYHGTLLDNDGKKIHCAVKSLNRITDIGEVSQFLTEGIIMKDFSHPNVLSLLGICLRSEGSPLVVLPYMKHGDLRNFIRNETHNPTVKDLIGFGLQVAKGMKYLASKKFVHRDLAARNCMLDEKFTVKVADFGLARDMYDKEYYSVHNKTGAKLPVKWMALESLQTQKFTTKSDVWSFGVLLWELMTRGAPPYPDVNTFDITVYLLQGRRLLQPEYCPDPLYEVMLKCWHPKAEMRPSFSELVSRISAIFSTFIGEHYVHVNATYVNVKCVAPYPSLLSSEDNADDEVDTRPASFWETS
Source text: as §1

panel of 442 kinases [3] = molecular target: T3, panel of 442 kinases (Homo sapiens, UniProt Q15375)
T3 construct: purchased KINOMEscan
T3 sequence (Q15375 28-998): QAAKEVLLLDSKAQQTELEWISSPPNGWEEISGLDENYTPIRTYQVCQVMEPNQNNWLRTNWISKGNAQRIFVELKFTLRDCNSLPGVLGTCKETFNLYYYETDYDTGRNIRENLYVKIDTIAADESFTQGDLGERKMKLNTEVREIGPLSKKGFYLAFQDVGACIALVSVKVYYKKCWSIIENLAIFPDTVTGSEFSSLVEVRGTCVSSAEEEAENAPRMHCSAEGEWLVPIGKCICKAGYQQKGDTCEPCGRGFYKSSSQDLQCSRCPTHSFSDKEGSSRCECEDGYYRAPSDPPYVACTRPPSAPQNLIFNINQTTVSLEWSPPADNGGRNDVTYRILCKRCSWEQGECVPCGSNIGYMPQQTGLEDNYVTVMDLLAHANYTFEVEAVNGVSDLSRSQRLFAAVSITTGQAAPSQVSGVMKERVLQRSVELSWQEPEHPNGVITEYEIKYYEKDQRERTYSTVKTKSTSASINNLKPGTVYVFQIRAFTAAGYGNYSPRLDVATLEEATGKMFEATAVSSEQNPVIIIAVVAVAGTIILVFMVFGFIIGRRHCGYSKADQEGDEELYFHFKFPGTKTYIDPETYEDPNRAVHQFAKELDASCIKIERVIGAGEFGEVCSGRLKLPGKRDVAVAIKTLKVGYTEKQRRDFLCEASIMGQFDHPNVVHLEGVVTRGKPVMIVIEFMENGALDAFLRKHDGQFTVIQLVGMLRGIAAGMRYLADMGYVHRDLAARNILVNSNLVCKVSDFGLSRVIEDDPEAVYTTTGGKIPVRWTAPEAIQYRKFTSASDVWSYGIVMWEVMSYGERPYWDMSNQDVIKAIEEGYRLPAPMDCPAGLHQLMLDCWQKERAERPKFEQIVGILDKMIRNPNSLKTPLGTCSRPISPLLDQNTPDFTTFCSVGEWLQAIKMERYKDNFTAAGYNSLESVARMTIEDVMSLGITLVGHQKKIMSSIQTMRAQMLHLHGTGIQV
Source text: as §1

SMILES | KINOMEscan: PRKD3 (panel of 442 kinases [1]) | KINOMEscan: MET (panel of 442 kinases [2]) | KINOMEscan: EPHA7 (panel of 442 kinases [3])
COc1cc(C(=O)N2CCC(N3CCN(C)CC3)CC2)ccc1Nc1ncc2c(n1)N1CCc3cccc(c31)C(=O)N2C [Compound 24] | 19 | – | –
CCOc1cc(C(=O)N2CCC(N3CCN(C)CC3)CC2)ccc1Nc1ncc2c(n1)N(C1CCCC1)c1ccccc1C(=O)N2C [Compound 26] | 100 | 100 | 100
COc1cc(C(=O)N2CCC(N3CCN(C)CC3)CC2)ccc1Nc1ncc2c(n1)N(C1CCCC1)c1ccccc1C(=O)N2C [Compound 25, 11-cyclopentyl-2-((2-methoxy-4-(4-(4-methylpiperazin-1-yl)piperidine-1-carbonyl)phenyl)amino)-5-methyl-5H-benzo[e]pyrimido[5,4-b][1,4]diazepin-6(11H)-one] | 100 | 97 | 99
COc1cc(C(=O)N2CCC(N3CCN(C)CC3)CC2)ccc1Nc1ncc2c(n1)N(C)c1ccccc1C(=O)N2C [15 (LRRK2-IN-1)] | 42 | 100 | 97
